2 sequences from patent US8173604B2, “Inhibition of Skp2-cyclin a interaction” (Albert Einstein College of Medicine of Yeshiva University, priority 2006, dated 2012) can be followed below.

Read-outs that look alike come from different tables or passages of the source. Ends that are not written are not given here.

In test [1] the target is T1, Skp2-cyclin A interaction (Homo sapiens, UniProt P20248).
T1 construct: expressed in transfected cells; host or cells: 293T (cyclin A/Cdk2)
Put plainly: GST pull-down, blocking of Skp2-cyclin A interaction by peptides. Format: binding. Conditions: GST-Skp2N, myc-cyclin A/Cdk2 transfected 293T cell extracts. As to the method:
(§1) GST pull down, p27 ubiquitylation assay, and cyclin A kinase assay. GST fusion proteins were purified on GSH-beads (Amersham), which were then incubated with transfected cell extracts for 1 hour in 4° C. with rocking. The beads were washed three times with lysis buffer (25 mM Hepes pH 7.6, 100 mM KCl, 0.1 mM EDTA, 10 mM MgCl2, 0.1% NP-40, 10% glycerol, 1 mM DTT) before analysis by SDS-PAGE and Western blotting.
(§2) Skp2-cyclin A interaction and p27-cyclin A interaction can be blocked by distinct peptides. An important aspect of the RxL-1-IP interaction is that it can be blocked by a short RxL peptide (Adams et al., 1996). If the Skp2-cyclin A/Cdk2 interaction and the p27-cyclin A/Cdk2 interaction are mediated by different sequences on both sides of the interaction, as shown above, it can be predicted that the RxL peptide should not block Skp2-cyclin A interaction. […] Peptide concentrations required for their respective blocking activities were similar for RxL and 4060 peptides.

Test [2] deals with T2, p27-cyclin A interaction (Homo sapiens, UniProt P20248).
T2 construct: expressed in transfected cells; host or cells: 293T (cyclin A/Cdk2)
Put plainly: GST pull-down, blocking of p27-cyclin A interaction. Format: binding. The note with it: GST-p27, myc-cyclin A/Cdk2 transfected 293T cell extracts. As to the method: as §1, §2
Skp2 competes with p27/p21, but not E2F1, for binding to cyclin A. Whether the apparently distinct Skp2-cyclin A interaction and p27-cyclin A interaction are competitive against each other was next evaluated. […] Whether the competition between Skp2 and p27/p21 for cyclin A binding could be observed in vivo with endogenous proteins under physiological conditions was next determined. […]

Test [3] addresses T3, cyclin A/Cdk2 (Homo sapiens, UniProt P20248+P24941).
T3 construct: made in house; host or cells: insect cells (baculovirus)
Put plainly: IP-kinase assay with myc-cyclin A/Cdk2 transfected 293T cell extract. The format is biochemical. The note with it: increasing amounts of peptide. As to the method:
In panel A, an IP-kinase assay was performed with myc-cyclin A/Cdk2 transfected 293T cell extract in the presence of increasing amounts of RxL or 4060 peptides. Phosphorylation of GST-Skp2N is visible in this gel. […] As indicated, increasing amounts of the 4060 or 4060AAAA peptides were included in the reactions. Phosphorylation of Rb-C was quantified and plotted as shown.
Cyclin A/Cdk2 kinase assays were performed as described previously (Ji et al., 2004). Both immuno-purified myc-cyclin A/Cdk2 on beads and GST-purified and eluted GST-cyclin A/Cdk2 (baculovirus vectors for GST-cyclin A and Cdk2 were provided by Brian Dynlacht) were used. The amounts of purified proteins were determined by comparing them with known amounts of standard proteins in Coomassie blue stained gels. Phosphorylation of GST-Rb-C was quantified with the ImageQuant software. The Ki of various proteins was determined by non-linear least squares analysis. […] Actual amounts of proteins in 7.5×10^4 HeLa cells were then determined (for example, the amounts of p27, Skp2, and cyclin A in 7.5×10^4 HeLa cells were determined to be about 0.1, 0.2, and 0.1 pmoles, respectively, at 14 hours post-replating; and about 0.01, 0.1, and 1.0 pmoles, respectively, at 19 hours post-replating). […]

Test [4] concerns the target T3, cyclin A/Cdk2. Put plainly: In vitro cyclin A/Cdk2 kinase assay with purified proteins (GST-Rb-C substrate). The format is biochemical. As to the method: Cyclin A/Cdk2 kinase assays were performed as described previously (Ji et al., 2004). Both immuno-purified myc-cyclin A/Cdk2 on beads and GST-purified and eluted GST-cyclin A/Cdk2 (baculovirus vectors for GST-cyclin A and Cdk2 were provided by Brian Dynlacht) were used. The amounts of purified proteins were determined by comparing them with known amounts of standard proteins in Coomassie blue stained gels. Phosphorylation of GST-Rb-C was quantified with the ImageQuant software. The Ki of various proteins was determined by non-linear least squares analysis. To determine the amounts of various proteins in synchronized HeLa cells, extracts representing 7.5×10^4 HeLa cells were resolved with known amounts of purified proteins and compared in the same Western blots. Actual amounts of proteins in 7.5×10^4 HeLa cells were then determined (for example, the amounts of p27, Skp2, and cyclin A in 7.5×10^4 HeLa cells were determined to be about 0.1, 0.2, and 0.1 pmoles, respectively, at 14 hours post-replating; and about 0.01, 0.1, and 1.0 pmoles, respectively, at 19 hours post-replating).
For kinase reactions, insect cell-produced and purified GST-cyclin A/Cdk2 was used at a concentration of ˜3 nM, which was the lowest concentration that yielded readily detectible phosphorylation of GST-Rb-C here. Purified p27, GST-Skp2, and Skp2N were titrated into the kinase reaction over a wide range of concentrations (FIGS. 7A, B, and C). Phosphorylation of Rb-C was measured and plotted, and the Ki of these various proteins were determined by non-linear least squares analysis (FIG. 7F).
Since Skp2 competes with p27 for binding to cyclin A and Skp2's Ki is about 100-fold higher than p27's Ki, it can be reasoned that, at concentrations well below its Ki, Skp2 might be able to protect cyclin A/Cdk2 from inhibition by p27. To test this hypothesis, the same cyclin A/Cdk2 kinase assay was carried out to determine the inhibitory activity of p27 in the presence of 80 nM of Skp2N.
It was then determined whether the 4060 peptide could prevent Skp2N from protecting cyclin A/Cdk2 from inhibition by p27. […] When 80 nM of Skp2N was included, 5 nM of p27 lost its ability to inhibit the kinase activity (lane 3). […] These findings indicate that the Skp2-cyclin A interaction is also a potential target to inhibit cyclin A kinase activity in tumor cells, particularly those overexpressing Skp2.
To test this prediction, various peptides were added to an in vitro kinase reaction with purified cyclin A/Cdk2 (˜3 nM concentration). An E2F1-derived RxL peptide, LDL peptide, was used for comparison since it could inhibit cyclin A/Cdk2 kinase activity (Sun et al., 2006, and see next section). Since a TAT sequence was later added to these peptides for trans-membrane delivery (see next section), two versions of each peptide (without TAT and with TAT) was used in these kinase assays. These two versions of peptides yielded identical results and therefore only presented results with one version of the peptides.
The effects of the 4060 peptide on cyclin A/Cdk2 kinase activity in the presence of Skp2 and p27 were then determined.

Test [5] has as its target T4, interaction between cellular Skp2 and cyclin A/Cdk2 (Homo sapiens, UniProt P20248).
T4 construct: endogenous in cells; host or cells: U2OS
In words: Coimmunoprecipitation with cyclin A from peptide-treated U2OS cells. The format is cell-based. Conditions: 50 μM peptide, twelve hours. As to the method: (§3) FIG. 12 is photographs of western blots and kinase assays and graphs showing the effects of trans-membrane delivery of the 4060 peptide. In Panel A, U2OS cells were treated with 50 μM of indicated peptide for twelve hours. Cell extracts were prepared for immunoprecipitation and Western blot analysis as indicated. […] In Panel C, the same extracts were used in IP-kinase assays as indicated. The extent of phosphorylation was quantified and plotted.
(§4) The loss of Skp2-cyclin A/Cdk2 interaction was not due to a reduction in levels of these proteins (FIG. 12B). Importantly, cellular p27 protein levels were not affected by the blocking peptide. […] Here, it is important to point out that although we used p27 as an inhibitor of cyclin A-associated kinase activity in purified kinase reactions with the 4060 blocking peptide shown in FIG. 11, the effects of blocking Skp2-cyclin A interaction on cyclin A-associated kinase activity in cells is unlikely to be mediated by p27 alone. There was no significant interaction between p27 and cyclin A in U2OS cells before and after treatment of TAT-4060. p27 family members p21 and p57, and the pocket proteins p107 and p130 (Adams et al., 1996) may bind and inhibit cyclin A-associated kinase activity through the RxL-HP interaction mechanism. […]

Test [6] concerns p27. In words: Western blot of peptide-treated U2OS cell extracts. The format is cell-based, human. Conditions: U2OS cells, 50 μM peptide, twelve hours. As to the method:
as §3, §4
A general note: In western blotting, separated proteins are transferred to a membrane and probed.

Test [7] has as its system cyclin A-associated kinase activity. In words: IP-kinase assay of anti-cyclin A and anti-Cdk2 immune complexes from peptide-treated U2OS cells. Format: cell-based, human. The note with it: 50 μM peptide, twelve hours, compared with TAT-4060AAAA or TAT-Umt. As to the method: as §3, §4
The subject of test [8] is U2OS cells. As to the method:
It is currently unknown how peptide concentrations in the culture media translate into intro-cellular peptide concentrations.
Whether artificial manipulation of Skp2 protein levels in U2OS cells could change the IC50 of various peptides was also investigated.
(§5) Cell proliferation and survival assays. For the cell proliferation assay shown in FIG. 10D, 1×10^4 cells were plated in each well of 24 well plates and allowed to grow for a course of four days in the presence of 10% FBS. Cell numbers were counted every day from triplet wells. For cell survival assays in FIGS. 13, 14 and 15, 1×10^3 cells were plated in each well of 96 well plates and allowed to adhere overnight in the presence of 10% FBS. The cells were washed once with Opti-MEM (GIBCO) followed by incubation with different concentrations of peptides in Opti-MEM for 24 hours in triplicate. MTS assay was then performed following manufacturer's protocol (Promega).

Test [9] concerns human diploid fibroblasts WI-38. Put plainly: Cell survival MTS assay, WI-38. Format: cell-based. Conditions: 120 μM, 24 hours. As to the method:
In comparison, both TAT-Umt and TAT-4060 inhibited cyclin A/Cdk2 kinase activity in vitro at peptide concentrations of 100 μM (FIG. 11B). It is currently unknown how peptide concentrations in the culture media translate into intro-cellular peptide concentrations.
as §5
On the technique in general: Tetrazolium dyes change colour on reduction, which living cells bring about.

In test [10] the test system is HeLa cells. Put plainly: Cell survival MTS assay, HeLa. The format is cell-based, human. Conditions: high levels of Skp2.
Description: IC50 of the 4060 peptide positively correlates with Skp2 protein abundance in cancer cells. Skp2 is frequently overexpressed at various levels in various cancer cells. If TAT-4060 kills cancer cells by disrupting Skp2-cyclin A interaction, higher peptide concentrations should be needed to kill cancer cells with higher levels of Skp2. In comparison, since TAT-LDL is believed to kill cancer cells by blocking access of cyclin A to E2F1, there need not be a direct correlation between effective TAT-LDL concentrations and cellular Skp2 protein levels. To test this prediction, Skp2 protein levels and IC50 of both TAT-4060 and TAT-LDL was determined for the panel of four cancer cell lines.
as §5

Consider “SACRNLFG (peptide RxL) [reference compound]”, for which the “Blocking of Skp2N-cyclin A interaction” value in [1] is reported as “but not the Skp2N-cyclin A interaction”. Moreover, in [2], the “Blocking of p27-cyclin A interaction” value is recorded as “blocking the p27-cyclin A interaction”. Moreover, in test [3], the “Effect of peptide itself on cyclin A/Cdk2 kinase activity towards Rb-C” value is “inhibited the kinase activity”.

As usually defined, the IC50 is the concentration needed to halve the response being measured. Take “YGRKKRRQRRRGKTSELLSGMGVSALEKEE [TAT-4060]”: in test [4] (1 μM and 10 μM peptide), the “Inhibitory effect on cyclin A/Cdk2 kinase activity” value is on record as “did not show inhibitory effect”. Further, the “Inhibition of cyclin A/Cdk2 kinase activity” value in test [4] (100 μM peptide) is “significant inhibition”. In addition, in test [5], the “Dissociation of interaction between cellular Skp2 and cyclin A/Cdk2” value is reported as “resulted in dissociation”. Further, the “Cellular p27 protein levels” value in test [6] is given as “not affected”. For the same sequence, the “Kinase activity in anti-cyclin A and anti-Cdk2 immune complexes” value in test [7] is on record as “clear reduction”. Further, the “Concentration of peptide to achieve 40% killing” value in test [8] (U2OS with artificial decrease in Skp2 protein levels (knockdown)) worked out at 20 µM; in [8] (U2OS, Skp2 levels not manipulated) it was 40 µM. In addition, the Cell killing effectiveness entry in [8] (U2OS with artificial increase of Skp2 protein levels (overexpression)) is reported as “nearly as ineffective as TAT-Umt”. For the same sequence, in test [8] (U2OS, 1 or 2 μM, 24 hours), the “Cell killing effect of single peptide” value was “neither TAT-LDL nor TAT-4060 exhibited any cell killing effects”. For the same sequence, the Cell killing effect result in [8] (U2OS, twenty four hours after addition of peptides) was “induced significant cell death”. Moreover, in [8] (read-out: IC50 of cell killing, U2OS, 24 hours, MTS), the concentration for half-maximal inhibition (IC50) stood at 35 µM. In addition, the WI-38 cells killed entry in test [9] was “no effect”. For the same sequence, the “Peptide concentration required for cell killing” value in test [10] is listed as “very high concentrations”.
